Experimental data published in patent US4140707A, “Malonato platinum anti-tumor compounds” (priority 1977, dated 1979).

Key:
[1] = tested on: Sarcoma 180; assay: Antitumor activity, solid Sarcoma 180 (Table I), T/C tumor weight ratio, sacrifice day 10; assay type: in vivo, female Swiss white mice
Experimental: The compounds of the invention were tested for anti-tumor activity using our standard screening tumor, solid sarcoma 180 tumer in female Swiss white mice, following standard protocols for this testing as set by the National Cancer Institute. (Cancer Chemotherapy Rep., 25(1962)).
For these tests an S 180 tumor taken from a sacrificed mouse was disected free of superfluous tissue and cut under sterile conditions into approximately 10 milligram size pieces. These tissue pieces were then implanted by trocar in the left axillary region, subcutaneously, in new mice. The mice were, on the average, approximately four weeks old and weighed 18-20 grams. Taking day 0 as the day of implant, the animals were sacrificed on day 10. The tumors were excised and weighed and the ratio of the weights of the tumors in mice in the treated animals to the control set of animals was obtained. This ratio, multiplied by 100, is given as the T/C ratio in Table I.
For the first set of tests the coordination compound was freshly dissolved in sterile distilled water and injected intraperitoneally on day 1 into each of the test mice. The volume of the injection was usually 1/2 ml. In some cases, in order to get an active dose into the animal where the chemical was not soluble in this amount of solvent, a fine dispersion was prepared of the dose needed for the test. Thus, some of our test results were obtained on animals where a slurry of the compound was injected. These are so noted in Table I below. In addition, for some of the compounds, there was injected about 1 ml of solution, either in one single injection, or in 2 injections given a few hours apart of 1/2 ml each. These injections were initially given in 4 different dose levels for each new compound with 6 mice in each dose level. The tests covered a dose range from a low ineffective dose, to an upper dose level which produced some deaths within the time period of the experiment.

[2] = tested on: Sarcoma 180; assay: Large Sarcoma 180 regressions (Table II), injection day 8, observed approximately 60 days; assay type: in vivo, female Swiss white mice; conditions: single i.p. day 8, H2O solution
Experimental: In addition to the day 1 injections described above, in a number of cases injections were delayed until day 8 of tumor growth. In these cases the tumor was usually at least larger than 1/2 gm, as estimated by palpation. The animals were then injected and observed for a period of approximately 60 days. Activity was measured by the number of animals whose tumors had regressed to the vanishing point, while still allowing the animal to survive for this time period. Such test results are described in TABLE II below.

[3] = tested on: Walker 256 Carcinosarcoma; assay: Confirmatory antitumor activity, Walker 256 Carcinosarcoma (Table III); assay type: in vivo, Rat; conditions: i.p.
Experimental: (§1) Confirmatory tests of antitumor activity against the Walker 256 Circinosarcoma in rats, and the ADJ/PC6A tumor in mice were conducted. The initial test results are shown in Table III and confirm the potent action of the compounds of the invention against these other tumor systems.

[4] = tested on: ADJ/PC6A; assay: Confirmatory antitumor activity, ADJ/PC6A (Table III); assay type: in vivo, Mouse; conditions: i.p.
Experimental: as §1

[5] = tested on: L1210; assay: Confirmatory antitumor activity at the National Cancer Institute, L1210 (Table IV); assay type: in vivo, Mice
Description: Samples of the malonato diammine and malonato ethylene diamino complexes of platinum(II) were submitted to the Drug Research and Development Branch of the National Cancer Institute for screening for antitumor activity against the L1210 tumor in mice. They confirm the activity of the compounds of the invention.

[6] = 20 mg/kg, single i.p. day 1, vehicle not noted
[7] = 40 mg/kg, single i.p. day 1, vehicle not noted
[8] = 60 mg/kg, single i.p. day 1, vehicle not noted
[9] = 80 mg/kg, single i.p. day 1, vehicle not noted
[10] = 100 mg/kg, single i.p. day 1, vehicle not noted
[11] = 120 mg/kg, single i.p. day 1, vehicle not noted
[12] = 160 mg/kg, single i.p. day 1, vehicle not noted
[13] = 30 mg/kg, single i.p. day 1, solution in H2O
[14] = 40 mg/kg, single i.p. day 1, solution in H2O
[15] = 50 mg/kg, single i.p. day 1, solution in H2O
[16] = 60 mg/kg, single i.p. day 1, solution in H2O
[17] = 70 mg/kg, single i.p. day 1, solution in H2O
[18] = 80 mg/kg, single i.p. day 1, solution in H2O
[19] = 90 mg/kg, single i.p. day 1, vehicle not noted
[20] = 110 mg/kg, single i.p. day 1, vehicle not noted
[21] = 45 mg/kg, single i.p. day 1, vehicle not noted
[22] = 75 mg/kg, single i.p. day 1, vehicle not noted
[23] = 140 mg/kg, single i.p. day 1, vehicle not noted
[24] = 180 mg/kg, single i.p. day 1, vehicle not noted
[25] = 10 mg/kg, single i.p. day 1, solution in H2O
[26] = 20 mg/kg, single i.p. day 1, solution in H2O
[27] = 45 mg/kg, single i.p. day 1, solution in H2O
[28] = 55 mg/kg, single i.p. day 1, solution in H2O
[29] = 10 mg/kg, single injection day 1 in oil
[30] = 20 mg/kg, single injection day 1 in oil
[31] = 40 mg/kg, single injection day 1 in oil
[32] = dose 4, single injection day 25 in oil
[33] = dose 20, single injection day 25 in oil
[34] = dose 100, single injection day 25 in oil
[35] = 90 mg/kg, single i.p. day 1, solution in H2O

N.N.O=C([O-])C1(C(=O)[O-])CCC1.[Pt+4] [1,1-cyclobutanedicarboxylate diammineplatinum (II)]
No. of Deaths [1, 6]: 0
T/C [1, 6]: 71
No. of Deaths [1, 7]: 0
T/C [1, 7]: 60
No. of Deaths [1, 8]: 0
T/C [1, 8]: 38
No. of Deaths [1, 9]: 0
T/C [1, 9]: 42
No. of Deaths [1, 10]: 0
T/C [1, 10]: 69
No. of Deaths [1, 11]: 0
T/C [1, 11]: 18
No. of Deaths [1, 12]: 4
T/C [1, 12]: 62

CC1C(=O)[O][Pt]([NH2])([NH2])[O]C1=O [Methylmalonatodiammineplatinum(II)]
No. of Deaths [1, 13]: 0
T/C [1, 13]: 39
No. of Deaths [1, 14]: 0
T/C [1, 14]: 26
No. of Deaths [1, 15]: 0
T/C [1, 15]: 35
No. of Deaths [1, 16]: 0
T/C [1, 16]: 6
No. of Deaths [1, 17]: 3/6
T/C [1, 17]: 124
No. of Deaths [1, 18]: 6/6

CCC1C(=O)[O][Pt]2([NH]CC[NH]2)[O]C1=O [ethylmalonatoethylenediamineplatinum (II)]
No. of Deaths [1, 7]: 0
T/C [1, 7]: 72
No. of Deaths [1, 8]: 0
T/C [1, 8]: 81
No. of Deaths [1, 9]: 0
T/C [1, 9]: 79
No. of Deaths [1, 19]: 0
T/C [1, 19]: 47
No. of Deaths [1, 10]: 1
T/C [1, 10]: 55
No. of Deaths [1, 20]: 0
T/C [1, 20]: 41
No. of Deaths [1, 11]: 0
T/C [1, 11]: 58

CCC(C(=O)[O-])C(=O)[O-].N.N.[Pt+2] [ethylmalontodiammineplatinum(II)]
No. of Deaths [1, 13]: 0
T/C [1, 13]: 57
No. of Deaths [1, 14]: 0
T/C [1, 14]: 43
No. of Deaths [1, 15]: 0
T/C [1, 15]: 47
No. of Deaths [1, 16]: 0
T/C [1, 16]: 39
No. of Deaths [1, 17]: 0
T/C [1, 17]: 17
No. of Deaths [1, 18]: 0
T/C [1, 18]: 16

CC(N)CN.O=C([O-])CC(=O)[O-].[Pt+2] [malonato-1,2 propylenediamineplatinum (II)]
No. of Deaths [1, 21]: 0
T/C [1, 21]: 50
No. of Deaths [1, 8]: 1
T/C [1, 8]: 9
No. of Deaths [1, 22]: 3
T/C [1, 22]: 16
No. of Deaths [1, 19]: 5

NCCCN.O=C([O-])CC(=O)[O-].[Pt+2] [malonato-1,3 propylenediamineplatinum (II)]
No. of Deaths [1, 6]: 0
T/C [1, 6]: 69
No. of Deaths [1, 7]: 0
T/C [1, 7]: 79
No. of Deaths [1, 8]: 0
T/C [1, 8]: 21
No. of Deaths [1, 9]: 1
T/C [1, 9]: 35

CN.CN.O=C([O-])CC(=O)[O-].[Pt+2] [malonatobis(methylamine) platinum (II)]
No. of Deaths [1, 9]: 0
T/C [1, 9]: 58
No. of Deaths [1, 10]: 0
T/C [1, 10]: 53
No. of Deaths [1, 11]: 0
T/C [1, 11]: 28
No. of Deaths [1, 23]: 0
T/C [1, 23]: 25
No. of Deaths [1, 12]: 1
T/C [1, 12]: 17
No. of Deaths [1, 24]: 1
T/C [1, 24]: 19

NCCN.O=C([O-])CC(=O)[O-].[Pt+2] [malonatoethylenediamineplatinum (II)]
No. of Deaths [1, 25]: 0
T/C [1, 25]: 88
No. of Deaths [1, 26]: 0
T/C [1, 26]: 58
No. of Deaths [1, 14]: 0
T/C [1, 14]: 18
No. of Deaths [1, 27]: 0
T/C [1, 27]: 49
No. of Deaths [1, 15]: 0
T/C [1, 15]: 35
No. of Deaths [1, 28]: 0
T/C [1, 28]: 38
No. of Deaths [1, 16]: 3/6
T/C [1, 16]: 15
No. of Deaths [1, 8]: 0
T/C [1, 8]: 80
No. of Deaths [1, 18]: 3/6
T/C [1, 18]: 24
No. of Deaths [1, 9]: 0
T/C [1, 9]: 138
No. of Deaths [1, 10]: 0
T/C [1, 10]: 85
No. of Deaths [1, 11]: 0
T/C [1, 11]: 50
Deaths ([2]; 40 mg/kg): 3
Total Number of Regressions ([2]; 40 mg/kg): 3
Deaths ([2]; 45 mg/kg): 5
Total Number of Regressions ([2]; 45 mg/kg): 1
Deaths ([2]; 50 mg/kg): 4
Total Number of Regressions ([2]; 50 mg/kg): 2
Deaths ([2]; 60 mg/kg): 3
Total Number of Regressions ([2]; 60 mg/kg): 3
% Inhibition [3, 29]: 1%
Deaths [3, 29]: 0
% Inhibition [3, 30]: 25%
Deaths [3, 30]: 0
% Inhibition [3, 31]: 100%
Deaths [3, 31]: 0
Deaths ([3]; 80 mg/kg, single injection day 1 in oil): 0
% Inhibition ([3]; dose 80, single injection day 1 in oil): 100%
Deaths ([3]; dose 160, single injection day 1 in oil): all
% Inhibition [4, 32]: 1.3%
Deaths [4, 32]: 0
% Inhibition [4, 33]: 94%
Deaths [4, 33]: 0
% Inhibition [4, 34]: 100%
Deaths [4, 34]: 0
Deaths ([4]; dose 500, single injection day 25 in oil): all
% Increase in Lifespan ([5]; 16.5 mg/kg, i.p. daily days 1-9, repeat test): 160%
% Increase in Lifespan ([5]; 25 mg/kg, i.p. daily days 1-9): 160%

CC1C(=O)[O][Pt]2([NH]CC[NH]2)[O]C1=O [methylmalonatoethylenediamineplatinum (II)]
No. of Deaths [1, 13]: 0
T/C [1, 13]: 78
No. of Deaths [1, 14]: 0
T/C [1, 14]: 80
No. of Deaths [1, 15]: 0
T/C [1, 15]: 51
No. of Deaths [1, 16]: 0
T/C [1, 16]: 26
No. of Deaths [1, 17]: 1
T/C [1, 17]: 20
No. of Deaths [1, 35]: 1
T/C [1, 35]: 4
